From patent US11207286B2, “Self-emulsifying composition of w3 fatty acid” (MOCHIDA PHARMACEUTICAL CO., LTD., priority 2009, dated 2021)

How the values were obtained:
[1] = Pharmacokinetics in cynomolgus monkey; assay type: in vivo; settings: cynomolgus monkeys fasted at least 12 hours, oral, 4.5 mg/kg in terms of EPA-E, plasma EPA
Experimental: The compositions of the Example 6 was orally administered to 6 cynomolgus monkies (2 to 5 years having a body weight of 2.70 to 4.65 kg, Hamri Co., Ltd.) under fasting, and time course blood EPA concentration was evaluated. The test animals were fasted at least for 12 hours before the test, and each animal was administered with the self-emulsifying composition at an amount of 4.5 mg/kg in terms of the EPA-E. The EPA-E stock solution filled in a capsule was also administered to the control group animals. The blood was collected before the administration and at 1, 2, 4, 6, 8, 10, 12, 24, 48, and 72 hours after the administration, and after separating and treating the plasma, plasma EPA was measured by LC/MS/MS. […] In calculating each parameter, the value was corrected by subtracting the blood EPA concentration before the administration from the blood concentration after the administration.

[2] = Pharmacokinetics in beagle; assay type: in vivo; settings: male beagles fasted at least 18 hours, oral, 600 mg in terms of EPA-E, plasma EPA, corrected for pre-administration concentration
Experimental: The compositions of the Examples 6, 7, 9, 10, 13, and Comparative Example 2 were orally administered to 3 to 8 male beagles (34 to 45 months old having a body weight of 11 to 17 kg, Kitayama Labes Co., Ltd.) under fasting, and time course blood EPA concentration was evaluated. The test animals were fasted at least for 18 hours before the test, and each animal was administered with the composition at an amount of 600 mg in terms of the EPA-E. The blood was collected before the administration and at 1, 1.5, 2, 2.5, 3, 4, 6, 8, and 24 hours after the administration, and after separating and treating the plasma, plasma EPA concentration was measured by LC/MS/MS. The EPA-E stock solution filled in a capsule was also administered to the control group animals. […] In calculating each parameter, the value was corrected by subtracting the blood EPA concentration before the administration from the blood concentration after the administration.

[3] = test system: Fasted Glucose Tolerance Model Rat; assay: Effectiveness in fasted glucose tolerance model rat; assay type: in vivo, Sprague Dawley rats; settings: rats fasted at least 24 hours, oral capsule 100 mg/kg in terms of EPA-E, glucose 2 g/kg 30 minutes later
Experimental: Male Sprague Dawley rats (10 week old, Charles River Laboratories Japan, Inc.) are divided into 4 groups each comprising 10 animals with even body weight and serum TG value. Control group is administered with olive oil, EPA-E group is administered with EPA-E stock solution, Example group is administered with the self-emulsifying composition of Example 6, and comparative group is administered with the composition of Comparative Example 2 by filling in the gelatin capsule and perorally administering the capsule to the animals, respectively. The test animals are fasted at least 24 hours before the administration, and each animal is administered with the composition at an amount of 100 mg/kg in terms of the olive oil or the EPA-E. 30 minutes after the administration, glucose solution in physiological saline is orally administered at 2 g/kg. Blood is periodically collected from tail vein, and plasma TG concentration and free fatty acid concentration are measured by using a commercially available assay kit. Change from the value before the glucose loading is calculated for each parameter.

[4] = on rare occasion; cited from earlier work

CC/C=C\C/C=C\C/C=C\C/C=C\C/C=C\CCCC(=O)OCC [EPA-E stock solution, Ethyl eicosapentaenoate ester]
AUC0-12 ([1]; 0 to 12 hours, corrected): 46.5 µg·h/mL
AUC0-72 ([1]; 0 to 72 hours, corrected): 284.5 µg·h/mL
Cmax ([1]; corrected for pre-administration concentration): 7400 ng/mL
AUC0-2 ([2]; 0 to 2 hours): 14.4 µg·h/mL
AUC0-24 ([2]; 0 to 24 hours): 188.0 µg·h/mL
Cmax [2]: 16600 ng/mL
increase in plasma TG concentration after the glucose loading [3]: not observed
side effect: nausea [4]: 0.23%
side effect: stomach discomfort [4]: 0.23%
side effect: vomiturition [4]: 0.21%
